Data: US20130324469A1, “FIBRINOGEN AND KIDNEY DAMAGE” (THE BRIGHAM AND WOMEN'S HOSPITAL, INC., priority 2010, published 2013)
“Also recorded” adds a separate entry of the source.

Legend:
[1] = system: rats; experiment: Galactosamine-induced liver toxicity in rats (specificity of urinary fibrinogen); assay type: in vivo, rat; details: 1.1 g/kg ip, 24 h
[2] = system: acute lung injury in animal models; details: suprapharmacological doses; cited from earlier work
[3] = system: myocardial infarction in animal models; details: suprapharmacological doses; cited from earlier work
[4] = system: renal I/R injury in C57BL/6 mice; experiment: 27 min bilateral renal ischemia/reperfusion (I/R) injury in mice, peptide given iv after reperfusion; assay type: in vivo, mouse
Procedure: FIG. 3 is a set of four bar graphs showing that Bβ15-42 peptide protects mice from renal ischemia/reperfusion (I/R) injury. Male C57Bl6 mice were subjected to 27 minutes bilateral renal ischemia/reperfusion injury or sham surgery and 3.6 mg/kg of Bβ15-42 peptide or random peptide was administered intravenously 1 min following reperfusion. […] Serum creatinine (SCr), blood urea nitrogen (BUN) as indicators of renal dysfunction and urinary levels of fibrinogen (Fg) and kidney injury molecule-1 (Kim-1) as indicators of kidney injury were measured at 24 and 48 h in all the groups. (n=5/group of sham, n=10/group at 24 hours and n=5/group at 48 hours).* represents p<0.05 as determined by one way ANOVA in comparison with sham mice.
Blood and urine analysis was performed as follows. At sacrifice, blood was collected from dorsal aorta in heparinized tubes. Serum creatinine (SCr) concentrations were measured using a Beckman Creatinine Analyzer II. Blood urea nitrogen (BUN) was measured spectrophotometrically at 340 nm using a commercially available kit (Thermo Scientific, Rockford, Ill.) as described before (Krishnamoorthy et al., Toxicol Sci. 2010; 118(1):298-306).
Urines were collected by placing animals in individual metabolic cages and one ml of RNAlater (Ambion, Austin, Tex.) was added to the tubes to preserve RNA. Urinary Kidney Injury Molecule-1 (Kim-1 in rats and KIM-1 in humans) was measured using previously established luminex-based assays (Vaidya et al., Nat Biotechnol. 2010; 28(5):478-485; Vaidya et al., Clinical and Translational Science. 2008; 1(3):200-208). Urinary Kim-1 in mice was measured using a luminex-based assay. Urinary N-acetyl-β-D-glucosaminidase (NAG) was measured spectrophotometrically according to the manufacturers' protocols (Roche diagnostics, Basel Switzerland). Urinary creatinine concentration was used to normalize biomarker measurements in order to account for the influence of urinary dilution on biomarker concentrations. Fibrinogen in mouse, rat and human urines was measured using a commercially available species-specific luminex assay based kit from Millipore (Billerica, Mass.).
Immunostaining, to evaluate the cellular expression profile of Fg whole protein and Fgα, Fgβ and Fgγ chains was performed as follows. Kidney tissues were perfused with cold PBS before harvesting and then fixed in formalin for 16 h and embedded in paraffin. The sections incubated overnight at 4° C. in rabbit monoclonal anti-Fibrinogen alpha (Epitomics, Burlingame, Calif.), rabbit polyclonal anti-Fibrinogen beta (ProteinTech Group, Chicago, Ill.), rabbit polyclonal anti-Fibrinogen gamma (ProteinTech Group, Chicago, Ill.), anti-rat fibrinogen (Nordic Immunological Laboratories, Tilburg, The Netherlands), anti-human fibrinogen (Sigma-Aldrich, St. Louis, Mo.) and rabbit monoclonal anti-Ki67 (Vector Laboratories, Burlingame, Calif.). The primary antibody was detected using goat anti-rabbit Cy3 labeled and donkey anti goat Cy3 labeled secondary antibodies (Jackson ImmunoResearch Laboratories, West Grove, Pa.). DAPI (Sigma Aldrich, St. Louis, Mo.) was used for nuclear staining. The tissue sections were mounted using ProLong Gold Antifade Reagent (Invitrogen, Carlsbad, Calif.). The images were captured at 100× for rats, 60× for mice and humans using NIKON Eclipse 90i fluorescence microscope.
Endotoxin free Bβ15-42 ([…]) and random peptide ([…]) were custom synthesized (Invitrogen, Carlsbad, Calif.) with 95% modification and N-terminal amine group addition and free acid modification. Bβ15-42 or random peptide (3.6 mg/kg) was administered intravenously (iv) 1 min after reperfusion following 27 min bilateral renal I/R injury in C57BL/6 mice (n=5 to 10/group). Forty male C57Bl6 wild type mice were anesthetized using pentobarbital sodium (30 mg/kg, ip) and subjected to 27 min of bilateral renal I/R surgery by the retroperitoneal approach. Sham surgery was performed with exposure of both kidneys but without induction of ischemia. […]

[5] = system: patients with acute myocardial infarction; details: phase IIa; patients whose endothelial barrier integrity had not been compromised; cited from earlier work
[6] = system: LLC-PK1 cells; experiment: BrdU uptake (cell proliferation) of LLC-PK1 cells after mineral-oil hypoxia; assay type: cell-based, pig; details: 6 μM; 48 h post hypoxia; serum free; vs random peptide
Procedure: FIG. 4E is a bar graph showing cell proliferation measured by bromodeoxyuridine (5-bromo-2-deoxyuridine (BrdU) uptake, by LLC-PK1 cells, 48 h post onset of hypoxia at 450 nm wavelength. Absorbance obtained from untreated cells was taken as 100% (n=6 wells/group). * represents p<0.05 as determined by Student's t-test between the two groups.
In vitro experiments using proximal tubular epithelial cells (LLC-PK1) were also performed. The renal tubular epithelial cell line, LLC-PK1, established from pig renal cortex was obtained from ATCC (Manassas, Va.) and maintained in DMEM containing 10% FBS. Two thousand five hundred LLC-PK1 cells were plated in 96 well plate for 24 h in DMEM 10% fetal bovine serum (FBS) at which time they formed a 50% confluent monolayer in the well. They were pretreated with 6 μM of Bβ15-42 or random peptide for 6 h and were immersed in 100 μl of mineral oil on top of DMEM medium without any serum for 6 h. […] Bromodeoxyuridine (5-bromo-2-deoxyuridine (BrdU) was measured as an index of cell proliferation by incubating cells with BrdU for 2 h before harvesting and the absorbance was quantified using a spectrophotometer at 450 nm wavelength as per manufacturer's instructions (Millipore, Bellerica, Mass.). Absorbance obtained from untreated cells was taken as 100% (n=6 wells/group) and the experiment was repeated twice.

[7] = target: T1, VE-Cadherin (Homo sapiens, UniProt P33151); details: disrupts interaction of Fg with VE-Cadherin on endothelial cells; cited from earlier work
T1 sequence (P33151 48-784): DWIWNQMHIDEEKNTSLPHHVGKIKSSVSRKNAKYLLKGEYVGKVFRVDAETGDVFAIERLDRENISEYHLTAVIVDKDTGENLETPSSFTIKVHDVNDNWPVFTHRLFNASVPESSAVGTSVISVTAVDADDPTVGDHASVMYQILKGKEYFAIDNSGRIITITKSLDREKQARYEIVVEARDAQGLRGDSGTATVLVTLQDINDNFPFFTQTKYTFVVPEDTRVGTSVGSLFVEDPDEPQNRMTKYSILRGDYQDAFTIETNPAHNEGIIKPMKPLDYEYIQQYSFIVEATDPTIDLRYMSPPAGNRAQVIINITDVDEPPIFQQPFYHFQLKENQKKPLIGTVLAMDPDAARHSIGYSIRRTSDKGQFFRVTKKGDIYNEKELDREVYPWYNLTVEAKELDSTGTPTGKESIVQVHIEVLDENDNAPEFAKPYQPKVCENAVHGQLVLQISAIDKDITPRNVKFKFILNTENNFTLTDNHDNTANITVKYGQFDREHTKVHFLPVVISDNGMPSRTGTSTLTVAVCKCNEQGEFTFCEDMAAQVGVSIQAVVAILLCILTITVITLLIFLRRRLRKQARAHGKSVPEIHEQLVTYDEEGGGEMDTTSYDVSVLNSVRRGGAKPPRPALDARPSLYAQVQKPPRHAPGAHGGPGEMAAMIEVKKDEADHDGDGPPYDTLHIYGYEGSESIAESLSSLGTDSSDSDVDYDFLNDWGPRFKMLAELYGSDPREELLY

[8] = mean ± SEM, listed as galactosamine
[9] = 3.6 mg/kg iv, 24 and 48 h, vs random peptide
[10] = 3.6 mg/kg iv, 24 h after I/R, vs random peptide

Compound: N[C@H]1C(O)O[C@H](CO)[C@H](O)[C@@H]1O (stereo partly drawn) [Galactosamine, galactosamine]
- histopathological score kidney [1]: 0
- histopathological score liver [1]: 2
- histopathological score kidney ([1]; listed as galactosamine): no signs of kidney structural or functional damage
- histopathological score liver ([1]; listed as galactosamine): extensive hepatocellular damage
- ALT ([1]; mean ± SEM): 422.8 ± 121.9 U/l
- AST ([1]; mean ± SEM): 246.0 ± 57.5 U/l
- BUN ([1]; mean ± SEM): 19.1 ± 1.1 mg/dL
- Scr ([1]; mean ± SEM): 0.5 ± 0.0 mg/dL
- kidney Fgα gene expression (FC relative to control) ([1]; mean ± SEM): 1.2 ± 0.1 FC
- kidney Fgβ gene expression (FC relative to control) ([1]; mean ± SEM): 1.0 ± 0.0 FC
- kidney Fgγ gene expression (FC relative to control) ([1]; mean ± SEM): 0.9 ± 0.1 FC
- kidney Kim-1 gene expression (FC relative to control) ([1]; mean ± SEM): 1.0 ± 0.1 FC
- urinary excretion of Fg ([1]; mean ± SEM): 26.0 ± 26.0 ng/mg Cr
- ALT [1, 8]: significant increase
- AST [1, 8]: significant increase
- kidney Fgα gene expression (FC relative to control) [1, 8]: did not lead to any increase
- kidney Fgβ gene expression (FC relative to control) [1, 8]: did not lead to any increase
- kidney Fgγ gene expression (FC relative to control) [1, 8]: did not lead to any increase
- urinary excretion of Fg [1, 8]: did not lead to any increase

Compound: GHRPLDKKREEAPSLRPAPPPISGGGYR (synthetically generated peptides) [Bβ15-42, naturally occurring 28 amino acid long product cleaved from fibrin fragments; Fgβ chain derived peptide, custom synthesized, endotoxin free]
- protection from acute lung injury [2]: protect
- protection from myocardial infarction [3]: protect
- infarct size and vascular congestion ([4]; 3.6 mg/kg iv 1 min after reperfusion, vs random peptide): significant reduction; also recorded: significantly smaller
- leukocyte infiltration (myeloperoxidase staining) [4, 9]: similar
- mRNA levels of inflammatory cytokines (IL-1β, IL-6, IL-10, TNFα, ICAM) and macrophage marker (CD68) in kidney [4, 9]: no difference
- proximal tubular damage in the outer stripe of outer medulla (H & E histopathology) [4, 10]: significant decrease
- reduction in kidney dysfunction measured by blood urea nitrogen (BUN) [4, 10]: Approximately 50%
- reduction in kidney dysfunction measured by serum creatinine (SCr) [4, 10]: Approximately 50%
- reduction in kidney proximal tubular injury measured by urinary Fg [4, 10]: Approximately 50%
- reduction in kidney proximal tubular injury measured by urinary kidney injury molecule-1 [4, 10]: Approximately 50%
- number of TUNEL positive apoptotic cells in the renal medulla ([4]; 24 h, vs random peptide): similar
- apoptosis (TUNEL) in the renal medulla ([4]; 48 h, p<0.05 vs random peptide): significant decrease
- proliferative (Ki67 positive) cells in the renal medulla ([4]; 48 h, vs random peptide): significant number of cells appeared to be in a proliferative state
- acute tubular injury ([4]; mice, bilateral renal I/R injury): substantially reduced
- clinical effect in acute myocardial infarction [5]: successful protective effects
- renal epithelial cell proliferation (BrdU uptake) [6]: stimulating renal epithelial cell proliferation
- interactions with VE-Cadherin [7]: low affinity
